# pIC50: −log10 of the molar value.
# Target: T1, rat mGlu 1a receptor (Rattus norvegicus, UniProt P23385)
# T1 construct: expressed in transfected cells; host or cells: EBNA cells (transient transfection)
# Experiment: [Ca2+]i measurements (FLIPR, Fluo-3 AM) on mGlu 1a transfected EBNA cells; agonist or antagonist (against 10 μM glutamate)
# Assay type: cell-based
# Details: for Remarks (agonist / antagonist): table of substituents of the Examples, column Remarks
# Experimental: cDNA encoding rat mGlu 1a receptor obtained from Prof. Nakanishi (Kyoto, Japan) was transiently tranfected into EBNA cells using a procedure described by Schlaeger et. al, New Dev. New Appl. Anim Cell Techn., Proc. ESACT Meet., 15th (1998), 105-112 and 117-120. [Ca^2+ ]i measurements were performed on mGlu 1a transfected EBNA cells after incubation of the cells with Fluo-3 AM (0.5 μM final concentration) for 1hour at 37° C. followed by 4 washes with assay buffer (DMEM supplemented with Hank's salt and 20 mM HEPES. [Ca^2+ ]i measurements were done using a fluorometric imaging plate reader (FLIPR, Molecular Devices Corporation, La Jolla, Calif. USA). When compounds were evaluated as antagonists they were tested against 10 μM glutamate as agonist.
# The inhibition (antagonists) or activation (agonists) curves were fitted with a four parameter logistic equation giving EC50, IC50, and Hill coefficient using the iterative non linear curve fitting software Origin (Microcal Software Inc., Northampton, Mass., USA).
# T1 sequence (P23385 19-1199): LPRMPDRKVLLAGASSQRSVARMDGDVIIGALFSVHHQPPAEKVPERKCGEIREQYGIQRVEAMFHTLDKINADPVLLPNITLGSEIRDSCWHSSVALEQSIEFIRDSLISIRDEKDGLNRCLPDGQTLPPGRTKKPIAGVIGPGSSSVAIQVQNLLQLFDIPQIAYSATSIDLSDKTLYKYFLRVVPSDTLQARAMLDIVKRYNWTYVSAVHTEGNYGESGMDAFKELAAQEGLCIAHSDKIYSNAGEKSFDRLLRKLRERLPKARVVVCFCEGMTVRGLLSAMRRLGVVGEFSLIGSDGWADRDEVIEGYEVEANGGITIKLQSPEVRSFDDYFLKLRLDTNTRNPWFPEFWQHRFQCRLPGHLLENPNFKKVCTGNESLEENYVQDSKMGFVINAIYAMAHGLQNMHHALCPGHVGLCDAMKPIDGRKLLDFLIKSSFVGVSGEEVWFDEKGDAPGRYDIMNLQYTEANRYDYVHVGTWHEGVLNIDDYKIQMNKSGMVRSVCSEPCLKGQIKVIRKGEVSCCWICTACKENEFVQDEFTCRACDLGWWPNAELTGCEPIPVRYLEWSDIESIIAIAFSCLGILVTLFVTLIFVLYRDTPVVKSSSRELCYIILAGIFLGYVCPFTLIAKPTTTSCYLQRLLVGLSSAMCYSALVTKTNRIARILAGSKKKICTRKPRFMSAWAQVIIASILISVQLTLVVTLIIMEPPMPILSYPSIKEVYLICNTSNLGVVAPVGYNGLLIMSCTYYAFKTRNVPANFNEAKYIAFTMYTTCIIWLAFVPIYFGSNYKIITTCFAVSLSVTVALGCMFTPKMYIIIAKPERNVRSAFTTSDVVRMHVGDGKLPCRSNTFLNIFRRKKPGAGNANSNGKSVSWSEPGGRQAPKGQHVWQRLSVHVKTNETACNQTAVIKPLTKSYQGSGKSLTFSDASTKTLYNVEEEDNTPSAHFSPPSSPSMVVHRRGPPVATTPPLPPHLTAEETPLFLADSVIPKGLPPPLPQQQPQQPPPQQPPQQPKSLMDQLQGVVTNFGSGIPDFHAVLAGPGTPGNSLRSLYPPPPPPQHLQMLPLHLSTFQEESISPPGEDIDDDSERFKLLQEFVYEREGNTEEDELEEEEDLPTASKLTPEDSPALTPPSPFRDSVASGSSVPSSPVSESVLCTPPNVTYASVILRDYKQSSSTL
Compound,Remarks (agonist / antagonist),agonistic / antagonistic activity to the mGlu receptor,agonist/antagonist (activity-data table),"pIC50 (antagonist, tested against 10 μM glutamate as agonist, read-out: IC50 (compounds marked antagonist))"
"Cc1ccc(C2CCCN2S(=O)(=O)c2ccc(Cl)cc2)cc1 (racemic) [Example 20, (RS)-1-(4-Chloro-benzenesulfonyl)-2-p-tolyl-pyrrolidine]",Antagonist,–,–,–
"CCc1ccc(C2CCCN2S(=O)(=O)c2ccc(Cl)cc2)cc1 (racemic) [Example 79, (RS)-2-(4-Ethyl-phenyl)-1-(4-chloro-benzenesulfonyl)-pyrrolidine]",Antagonist,–,–,–
"CN(C)c1ccc(C2CCCN2S(=O)(=O)c2ccc(Cl)cc2)cc1Cl (racemic) [Example 45, (RS)-1-(4-Chloro-benzenesulfonyl)-2-(4-dimethylamino-3-chloro-phenyl)-pyrrolidine]",Antagonist,–,–,–
"COc1ccc(S(=O)(=O)N2CCCC2c2ccc(F)cc2)cc1 (racemic) [Example 10, (RS)-2-(4-Fluoro-phenyl)-1-(4-methoxy-benzenesulfonyl)-pyrrolidine]",Antagonist,–,–,–
"Cc1ccc(S(=O)(=O)N2CCCC2c2ccc(N(C)C)c(F)c2)cc1 (racemic) [Example 41, (RS)-1-(p-Toluenesulfonyl)-2-(4-dimethylamino-3-fluoro-phenyl)-pyrrolidine]",Antagonist,–,–,–
"Cc1ccc(C2CCCN2S(=O)(=O)c2ccc(C)cc2)cc1 (racemic) [Example 19, (RS)-1-(Toluene-4-sulfonyl)-2-p-tolyl-pyrrolidine]",Agonist,agonistic activty,–,–
"O=S(=O)(c1ccc(Cl)cc1)N1CCCC1c1ccco1 (racemic) [Example 71, (RS)-1-(4-Chloro-benzenesulfonyl)-2-furan-2-yl-pyrrolidine]",Antagonist,–,–,–
"CC(=O)c1ccc(S(=O)(=O)N2CCCC2c2ccc(F)cc2)cc1 (racemic) [Example 27, (RS)-1-{4-[2-(4-Fluoro-phenyl)-pyrrolidine-1-sulfonyl]-phenyl}-ethanone]",Antagonist,–,–,–
"O=S(=O)(c1ccc(Cl)cc1)N1CCCC1c1cccc(F)c1 (racemic) [Example 2, (RS)-1-(4-Chloro-benzenesulfonyl)-2-(3-fluoro-phenyl)-pyrrolidine]",Agonist,–,–,–
"O=S(=O)(c1ccc(Cl)cc1)N1CCCC1c1ccncc1 (racemic) [Example 14, (RS)-4-1-(4-Chloro-benzenesulfonyl)-pyrrolidine-pyridine]",Agonist,–,–,–
"COc1ccc(C2CCCN2S(=O)(=O)c2ccc(Cl)cc2)cc1 (racemic) [Example 24, (RS)-1-(4-Chloro-benzenesulfonyl)-2-(4-methoxyl-phenyl)-pyrrolidine]",Antagonist,–,–,–
"Cc1ccc(S(=O)(=O)N2CCCC2c2cccnc2)cc1 (racemic) [Example 83, (RS)-3-[1-(Toluene-4-sulfonyl)-pyrrolidin-2-yl]-pyridine]",Agonist,agonistic activty,–,–
"Cc1ccc(S(=O)(=O)N2CCCC2c2ccc(F)cc2)cc1Cl (racemic) [Example 62, (RS)-1-(3-Chloro-4-methyl-benzenesulfonyl)-2-(4-fluoro-phenyl)-pyrrolidine]",Antagonist,–,–,–
"O=S(=O)(c1cccc(F)c1)N1CCCC1c1ccc(F)cc1 (racemic) [Example 64, (RS)-1-(3-Fluoro-benzenesulfonyl)-2-(4-fluoro-phenyl)-pyrrolidine]",Antagonist,–,–,–
"O=S(=O)(c1ccc(Cl)cc1)N1CCCC1c1ccc(Cl)cc1 (racemic) [Example 9, (RS)-1-(4-Chloro-benzenesulfonyl)-2-(4-chloro-phenyl)-pyrrolidine]",Agonist,agonistic activty,–,–
"Cc1ccc(S(=O)(=O)N2CCCC2c2ccc(F)c(Cl)c2)cc1 (racemic) [Example 42, (RS)-2-(3-Chloro-4-fluoro-phenyl)-1-(toluene-4-sulfonyl)-pyrrolidine]",Agonist,–,–,–
"O=S(=O)(c1ccc(C(F)(F)F)cc1)N1CCCC1c1ccc(F)cc1 (racemic) [Example 60, (RS)-2-(4-Fluoro-phenyl)-1-(4-trifluoromethyl-benzenesulfonyl)-pyrrolidine]",Agonist,agonistic activty,–,–

Compound,Remarks (agonist / antagonist),agonistic / antagonistic activity to the mGlu receptor,agonist/antagonist (activity-data table),"pIC50 (antagonist, tested against 10 μM glutamate as agonist, read-out: IC50 (compounds marked antagonist))"
"O=S(=O)(c1ccccc1)N1CCCC1c1ccc(F)cc1 (racemic) [Example 7, (RS)-1-Benzenesulfonyl-2-(4-fluoro-phenyl)-pyrrolidine]",Antagonist,–,antagonist,5.10
"N#Cc1ccc(S(=O)(=O)N2CCCC2c2ccc(F)cc2)cc1 (racemic) [Example 33, (RS)-2-(4-Fluoro-phenyl)-1-(4-cyano-benzenesulfonyl)-pyrrolidine]",Antagonist,–,–,–
"Cc1ccc(S(=O)(=O)N2CC[C@@H](CO)[C@@H]2c2ccc(F)cc2)cc1 (racemic) [Example 91, (2RS,3 RS)-[2-(4-Fluoro-phenyl)-1-(toluene-4-sulfonyl)-pyrrolidin-3-yl]-methanol]",agonist,agonistic activty,–,–
"Cc1ccc(S(=O)(=O)N2CCCC2c2ccc(C)cc2C)cc1 (racemic) [Example 67, (RS)-2-(2,4-Dimethyl-phenyl)-1-(toluene-4-sulfonyl)-pyrrolidine]",Antagonist,–,–,–
"O=S(=O)(c1ccc(F)cc1)N1CCCC1c1cccs1 (racemic) [Example 35, (RS)-1-(4-Fluoro-benzenesulfonyl)-2-thien-2-yl-pyrrolidine]",Antagonist,–,–,–
"CN(C)c1ccc(C2CCCN2S(=O)(=O)c2ccc(F)cc2)cc1 (racemic) [Example 73, (RS)-2-(4-N,N-Dimethylamino-phenyl)-1-(4-fluoro-benzenesulfonyl)-pyrrolidine]",Antagonist,–,–,–
"Cc1ccc(S(=O)(=O)N2CCCC2c2ccc(N(C)C)cc2)cc1 (racemic) [Example 72, (RS)-2-(4-N,N-Dimethylamino-phenyl)-1-(toluene-4-sulfonyl)-pyrrolidine]",Agonist,agonistic activty,–,–
"CCc1ccc(C2CCCN2S(=O)(=O)c2ccc(C)cc2)cc1 (racemic) [Example 78, (RS)-2-(4-Ethyl-phenyl)-1-(toluene-4-sulfonyl)-pyrrolidine]",Agonist,agonistic activty,–,–
"CN(C)c1ccc(C2CCCN2S(=O)(=O)c2ccc(Cl)cc2)cc1F (racemic) [Example 40, (RS)-1-(4-Chloro-benzenesulfonyl)-2-(4-dimethylamino-3-fluoro-phenyl)-pyrrolidine]",Agonist,agonistic activty,–,–
"O=S(=O)(c1ccc(Cl)cc1)N1CCCC1c1ccccc1 (racemic) [Example 6, (RS)-1-(4-Chloro-benzenesulfonyl)-2-phenyl-pyrrolidine]",Agonist,agonistic activty,–,–
"CN(C)c1ccc(C2CCCN2S(=O)(=O)c2ccc(F)cc2)cc1Cl (racemic) [Example 46, (RS)-1-(4-fluoro-benzenesulfonyl)-2-(4-diimethylamino-3-chloro-phenyl)-pyrrolidine]",Antagonist,–,–,–
"O=S(=O)(c1ccc(Cl)cc1)N1CCCC1c1ccc(F)cc1 (racemic) [Example 11, (RS)-1-(4-Chloro-benzenesulfonyl)-2-(4-fluorophenyl)-pyrrolidine]",Agonist,–,–,–
"Cc1ccc(S(=O)(=O)N2CCCC2c2cccc(Cl)c2)cc1 (racemic) [Example 31, (RS)-2-(3-Chloro-phenyl)-1-(toluene-4-sulfonyl)-pyrrolidine]",Agonist,agonistic activty,–,–
"O=S(=O)(c1ccc(CO)cc1)N1CCCC1c1ccc(F)cc1 (racemic) [Example 84, (RS)-2-(4-Fluoro-phenyl)-1-(4-hydroxymethyl-benzenesulfonyl)-pyrrolidine]",Agonist,agonistic activty,–,–
"CCc1ccc(C2CCCN2S(=O)(=O)c2ccc(F)cc2)cc1 (racemic) [Example 80, (RS)-2-(4-Ethyl-phenyl)-1-(4-fluoro-benzenesulfonyl)-pyrrolidine]",Antagonist,–,–,–
"Cc1ccc(S(=O)(=O)N2CCCC2c2ccco2)cc1 (racemic) [Example 69, (RS)-2-Furan-2-yl-1-(toluene-4-sulfonyl)-pyrrolidine]",Agonist,agonistic activty,–,–
